Measurements reported in paper PMC8944987, “In Vivo Efficacy of SQ109 against Leishmania donovani, Trypanosoma spp. and Toxoplasma gondii and In Vitro Activity of SQ109 Metabolites” (Biomedicines, 2022).

Columns and labels:
[1] = in vivo, 25 mg/kg; cited from earlier work
[2] = system: Plasmodium falciparum mature gametocytes (stage IV/V); set-up: method as in PMID 33431834; details: cited from earlier work
[3] = system: THP-1 human monocyte cell line; assay: Host cell toxicity in the L. donovani amastigote assay; type: cell-based; details: 3 days of compound incubation; Figure 2F
Protocol: The THP-1 human monocyte cell line was grown in RPMI-1640 medium (Welgene, Gyeongsangbuk-do, Republic of Korea) supplemented with 10% FBS and 1% P/S. For differentiation, THP-1 cells were treated for 3 days with 50 ng/mL of PMA [20]. […] An image analysis was performed as described in the T. cruzi assay (Figure S2).

[4] = system: T. cruzi Dm28c epimastigotes; assay: T. cruzi epimastigotes assay (resazurin); type: cell-based; details: Trypanosoma cruzi
Protocol: The exponential growth phase of epimastigotes were treated with different concentrations of drugs or 0.1% DMSO as negative control and incubated for 3 days at 28 °C. The viability of parasites was quantified with resazurin as described in the T. brucei assay.

CC(C)=CCC/C(C)=C/CNCCNC1C2CC3CC(C2)CC1C3 (centres unmarked) [SQ109, N-adamantan-2-yl-N’-((E)-3,7-dimethyl-octa-2,6-dienyl)-ethane-1,2-diamine]
t1/2 (terminal phase) [1]: 5.2 h
IC50 [2]: 0.105 µM
host cell (THP-1) toxicity: concentration up to which none was observed [3]: > 10 µM
IC50 ([4]; 72 h, Figure 2C, read-out: IC50, T. cruzi epimastigote growth inhibition (resazurin reduction)): 12.6 µM
EC50 ([4]; epimastigotes, read-out: T. cruzi Dm28c EC50 (EPI)): 4.5 µM
